In patent US10689354B2, “Aminoazole derivative” (Teijin Pharma Limited, priority 2015, dated 2020):

How the values were obtained:
[1] = biological target: T1, androgen receptor (AR-LBD) (Rattus norvegicus, UniProt P15207); test: Evaluation of androgen receptor affinity (PolarScreen Androgen Receptor Competitor Assay Kit, Red; fluorescence polarization); settings: 22° C. for 5 hours, relative to binding rate of 1 μM DHT, read-out: AR affinity (pEC50) (converted)
T1 construct: 5 μL of 2×AR-LBD/Fluoromone AL Red Complex contained in the kit; purchased Invitrogen
T1 sequence (P15207 651-882 limits assumed): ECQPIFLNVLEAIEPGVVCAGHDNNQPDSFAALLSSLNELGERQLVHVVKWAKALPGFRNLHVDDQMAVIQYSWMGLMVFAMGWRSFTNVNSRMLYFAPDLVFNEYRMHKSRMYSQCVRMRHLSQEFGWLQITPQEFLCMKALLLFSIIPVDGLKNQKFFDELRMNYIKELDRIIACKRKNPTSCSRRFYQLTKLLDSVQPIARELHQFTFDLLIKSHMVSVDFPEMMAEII
How it was run: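 FP competition: compound + AR-LBD/Fluoromone AL Red tracer complex, 22° C, 5 h. Reference 1 μM DHT binding rate; pEC50 by 4-parameter fit.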

human androgen receptor = biological target: T2, human androgen receptor (Homo sapiens, UniProt P10275); test: Reporter assay of an androgen receptor responsive sequence (luciferase, transiently transfected HEK293 cells); type: cell-based; settings: 24 hours incubation, relative to activity of 100 nM DHT, read-out: AR transcriptive activity (pEC50) (converted)
T2 construct: expressed in transfected cells; host or cells: HEK293
T2 sequence (P10275 1-920): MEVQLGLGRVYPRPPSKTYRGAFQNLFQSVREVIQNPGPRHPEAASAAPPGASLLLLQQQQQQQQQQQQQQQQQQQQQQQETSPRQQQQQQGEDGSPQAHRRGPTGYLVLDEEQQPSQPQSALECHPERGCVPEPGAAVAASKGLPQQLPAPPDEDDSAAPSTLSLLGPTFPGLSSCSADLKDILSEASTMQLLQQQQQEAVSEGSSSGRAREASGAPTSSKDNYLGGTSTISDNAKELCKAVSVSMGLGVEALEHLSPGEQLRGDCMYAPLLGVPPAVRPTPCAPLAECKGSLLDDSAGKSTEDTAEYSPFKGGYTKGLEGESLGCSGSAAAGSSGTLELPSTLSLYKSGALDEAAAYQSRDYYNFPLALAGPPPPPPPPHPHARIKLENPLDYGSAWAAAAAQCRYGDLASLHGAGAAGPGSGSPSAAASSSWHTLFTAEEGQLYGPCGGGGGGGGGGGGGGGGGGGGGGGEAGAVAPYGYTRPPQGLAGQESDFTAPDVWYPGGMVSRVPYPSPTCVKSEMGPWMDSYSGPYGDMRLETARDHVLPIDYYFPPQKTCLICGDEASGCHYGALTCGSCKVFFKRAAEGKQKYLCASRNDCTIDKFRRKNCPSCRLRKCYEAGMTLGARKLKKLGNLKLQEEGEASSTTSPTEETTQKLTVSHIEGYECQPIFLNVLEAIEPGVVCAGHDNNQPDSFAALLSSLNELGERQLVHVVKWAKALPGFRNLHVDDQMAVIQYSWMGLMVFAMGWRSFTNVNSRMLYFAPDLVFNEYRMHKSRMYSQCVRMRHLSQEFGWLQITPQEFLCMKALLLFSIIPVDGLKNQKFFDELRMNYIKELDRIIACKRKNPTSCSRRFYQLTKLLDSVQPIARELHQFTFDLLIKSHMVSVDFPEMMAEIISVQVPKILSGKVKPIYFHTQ
How it was run: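 Agonism scored as pEC50, fitted by 4-parameter curve against the response to 100 nM DHT, from dual-luciferase readout after 24 h compound treatment. Cells were HEK293 co-transfected (3 h) with human AR expression vector, androgen-responsive firefly reporter and Renilla control, in charcoal-stripped serum.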

Row | SMILES | EC50 [1] [µM] | EC50 (human androgen receptor) [µM]
1 | COC[C@@H](C)Oc1ccc(CN(c2ccc(C#N)cc2)c2nc(C(=O)NS(C)(=O)=O)c(C)s2)cc1 [Compound 583, 2-[4-cyano-N-[[4-[(1R)-2-methoxy-1-methyl-ethoxy]phenyl]methyl]anilino]-5-methyl-N-methylsulfonyl-thiazole-4-carboxamide] | 0.0398 | 2
2 | CS(=O)(=O)NC(=O)c1nc(N(Cc2ccc3occc3c2)c2ccc(C#N)cc2)sc1Br [Example 221, 2-[N-(benzofuran-5-ylmethyl)-4-cyano-anilino]-5-bromo-N-methylsulfonyl-thiazole-4-carboxamide] | 0.0398 | 0.0501
3 | Cc1sc(N(Cc2ccc(Cl)cc2)c2ccc(C(F)(F)F)nc2)nc1C(=O)NS(C)(=O)=O [Compound 470, 2-[(4-chlorophenyl)methyl-[6-(trifluoromethyl)-3-pyridyl]amino]-5-methyl-N-methylsulfonyl-thiazole-4-carboxamide] | 0.126 | 0.158
4 | COCCCS(=O)(=O)NC(=O)c1nc(N(Cc2ccc(F)cc2Cl)c2ccc(C#N)cc2)sc1C [Example 192, 2-[N-[(2-chloro-4-fluoro-phenyl)methyl]-4-cyano-anilino]-N-(3-methoxypropylsulfonyl)-5-methyl-thiazole-4-carboxamide] | 0.0631 | 1.26
5 | Cc1sc(N(CCc2ccc(Cl)c(Cl)c2)Cc2ccccc2)nc1C(=O)NS(C)(=O)=O [Compound 710, 2-[benzyl-[2-(3,4-dichlorophenyl)ethyl]amino]-5-methyl-N-methylsulfonyl-thiazole-4-carboxamide] | 0.0501 | 0.398
6 | CCCCN(c1ccc(C#N)cc1)c1nc(C(=O)NS(C)(=O)=O)c(C)s1 [Compound 64, 2-(N-butyl-4-cyano-anilino)-5-methyl-N-methylsulfonyl-thiazole-4-carboxamide] | 0.251 | 2.51
7 | CS(=O)(=O)NC(=O)c1nc(N(Cc2ccc(C(F)(F)F)cc2)c2ccc(C#N)cc2)sc1Br [Example 251, 5-bromo-2-[4-cyano-N-[[4-(trifluoromethyl)phenyl]methyl]anilino]-N-methylsulfonyl-thiazole-4-carboxamide] | 0.0398 | 0.0251
8 | Cc1cccc(CN(c2ccc(C#N)cc2)c2nc(C(=O)NS(C)(=O)=O)c(C)s2)c1 [Compound 16, 2-[4-cyano-N-(m-tolylmethyl)anilino]-5-methyl-N-methylsulfonyl-thiazole-4-carboxamide] | 0.0251 | 0.0316
9 | Cc1sc(N(Cc2ccc(OC(F)(F)F)cc2)c2ccc(C(F)(F)F)nc2)nc1C(=O)NS(C)(=O)=O [Compound 471, 5-methyl-N-methylsulfonyl-2-[[4-(trifluoromethoxy)phenyl]methyl-[6-(trifluoromethyl)-3-pyridyl]amino]thiazole-4-carboxamide] | 0.1 | 1
10 | COCCCS(=O)(=O)NC(=O)c1nc(N(CCc2ccc(C#N)cc2)Cc2ccc(F)cc2Cl)oc1C [Compound 558, 2-[(2-chloro-4-fluoro-phenyl)methyl-[2-(4-cyanophenyl)ethyl]amino]-N-(3-methoxypropylsulfonyl)-5-methyl-oxazole-4-carboxamide] | 0.0631 | > 10
11 | Cc1sc(N(CCC2CCCC2O)c2ccc(C#N)cc2)nc1C(=O)NS(C)(=O)=O (stereo not drawn) [Compound 406, 2-[4-cyano-N-[2-(2-hydroxycyclopentyl)ethyl]anilino]-5-methyl-N-methylsulfonyl-thiazole-4-carboxamide] | 0.794 | 2.51
12 | Cc1sc(N(Cc2ccc(C(F)(F)F)cc2)c2ccc(C#N)cc2)nc1C(=O)NS(C)(=O)=O [Compound 46, 2-[4-cyano-N-[[4-(trifluoromethyl)phenyl]methyl]anilino]-5-methyl-N-methylsulfonyl-thiazole-4-carboxamide] | 0.0316 | 0.0316
13 | Cc1sc(N(Cc2ccc(Br)cc2)c2ccc(C#N)cc2)nc1C(=O)NS(C)(=O)=O [Compound 129, 2-[N-[(4-bromophenyl)methyl]-4-cyano-anilino]-5-methyl-N-methylsulfonyl-thiazole-4-carboxamide] | 0.0398 | 0.02
14 | Cc1sc(N(Cc2cccc3ccccc23)c2ccc(C#N)cc2)nc1C(=O)NS(C)(=O)=O [Compound 68, 2-[4-cyano-N-(1-naphthylmethyl)anilino]-5-methyl-N-methylsulfonyl-thiazole-4-carboxamide] | 0.0501 | 0.794
15 | COc1ccc(CN(c2ccc(C#N)cc2)c2nc(C(=O)NS(C)(=O)=O)c(Cl)s2)cc1 [Example 271, 5-chloro-2-[4-cyano-N-[(4-methoxyphenyl)methyl]anilino]-N-methylsulfonyl-thiazole-4-carboxamide] | 0.0794 | 0.0501
16 | CS(=O)(=O)NC(=O)c1nc(N(Cc2ccc(Cl)cn2)c2ccc(C#N)cc2)sc1Br [Compound 641, 5-bromo-2-[N-[(5-chloro-2-pyridyl)methyl]-4-cyano-anilino]-N-methylsulfonyl-thiazole-4-carboxamide] | 0.126 | 0.0794
17 | Cc1sc(N(Cc2ccccc2)c2ccc3nccnc3c2)nc1C(=O)NS(C)(=O)=O [Compound 744, 2-[benzyl(quinoxalin-6-yl)amino]-5-methyl-N-methylsulfonyl-thiazole-4-carboxamide] | 0.316 | 1.26
18 | Cc1oc(N(CCc2ccc(Cl)cc2)Cc2ccc(C(F)(F)F)nc2)nc1C(=O)NS(C)(=O)=O [Compound 551, 2-[2-(4-chlorophenyl)ethyl-[[6-(trifluoromethyl)-3-pyridyl]methyl]amino]-5-methyl-N-methylsulfonyl-oxazole-4-carboxamide] | 0.0398 | 0.501
19 | Cc1oc(N(CCc2ccc(Cl)cc2)Cc2cccc(OC(F)(F)F)c2)nc1C(=O)NS(C)(=O)=O [Compound 542, 2-[2-(4-chlorophenyl)ethyl-[[3-(trifluoromethoxy)phenyl]methyl]amino]-5-methyl-N-methylsulfonyl-oxazole-4-carboxamide] | 0.0794 | 0.501
20 | Cc1sc(N(Cc2ccc(OC(F)F)cc2F)c2ccc(C#N)cc2)nc1C(=O)NS(C)(=O)=O [Compound 522, 2-[4-cyano-N-[[4-(difluoromethoxy)-2-fluoro-phenyl]methyl]anilino]-5-methyl-N-methylsulfonyl-thiazole-4-carboxamide] | 0.0251 | 0.251
21 | CCS(=O)(=O)NC(=O)c1nc(N(CCc2ccc(C#N)cc2)Cc2ccc(Cl)cc2)sc1C [Compound 713, 2-[(4-chlorophenyl)methyl-[2-(4-cyanophenyl)ethyl]amino]-N-ethylsulfonyl-5-methyl-thiazole-4-carboxamide] | 0.0316 | 0.251
22 | CCc1oc(N(Cc2cc(F)cc(OC(F)F)c2)c2ccc(C#N)cc2)nc1C(=O)NS(C)(=O)=O [Compound 656, 2-[4-cyano-N-[[3-(difluoromethoxy)-5-fluoro-phenyl]methyl]anilino]-5-ethyl-N-methylsulfonyl-oxazole-4-carboxamide] | 0.02 | 0.631
23 | Cc1sc(N(CCC2CCCC(O)C2)c2ccc(C#N)cc2)nc1C(=O)NS(C)(=O)=O (stereo not drawn) [Compound 442, 2-[4-cyano-N-[2-(3-hydroxycyclohexyl)ethyl]anilino]-5-methyl-N-methylsulfonyl-thiazole-4-carboxamide] | 0.316 | 1.26
24 | Cc1sc(N(CCc2cccc(Cl)c2)c2ccc(C#N)cc2)nc1C(=O)NS(C)(=O)=O [Compound 139, 2-[N-[2-(3-chlorophenyl)ethyl]-4-cyano-anilino]-5-methyl-N-methylsulfonyl-thiazole-4-carboxamide] | 0.0794 | 1.58
